This is an account of results in patent US7030140B2, “Substituted benzimidazole antiviral agents” (Bristol-Myers Squibb Company, priority 1998, dated 2006).

Counter-ions that a name gives are not always drawn. A value given as a limit tells only on which side of the number the result lay.

Data set [1] has as its system respiratory syncytial virus Long strain. Description: microbe, parasite or virus in culture. It is filed as cell-based. Conditions: for % cell protection from RSV at 4 µg/mL: human respiratory syncytial virus, 96 h, 4 μg/mL of compound, RSV Long strain-infected HEp-2 cells, compound added 1 hour post infection, 4 days, MTT.
Data set [2] is described as follows: in vitro. Conditions: human.
In data set [3] the test system is HEp-2 (ATCC CCL 23) cells.

In turn, `NC(=O)CCn1c(Cn2nnc3ccccc32)nc2ccccc21` [Example 41, 3-(2-Benzotriazol-1-ylmethyl-1-H-benzimidazol-1-yl)-propionamide] showed a % cell protection from RSV at 4 µg/mL in data set [1] of 75%. Also, in data set [2], the CC50 at 4 days stood at 4.3 µM.

`CC(C)=CCn1c(Cn2nnc3ccccc32)nc2ccccc21` [Example 21, 1-[1-(3-Methyl-2-butenyl)-1H-benzimidazol-2-ylmethyl]-1H-benzotriazole]: in data set [1], the % cell protection from RSV at 4 µg/mL amounted to 98%. In data set [2], the CC50 at 4 days is 69 µM.

In turn, `CC(N)CCn1c(Cn2nnc3ccccc32)nc2ccccc21` (stereo not drawn) [Example 40, 3-(2-Benzotriazol-1-ylmethyl-benzimidazol-1-yl)-1-methyl-propylamine] registered a % cell protection from RSV at 4 µg/mL in data set [1] of 96%. In data set [2], this compound registered a CC50 at 4 days of 8.5 µM.

In turn, `CC(C)(C)OC(=O)CCn1c(Cn2nnc3ccccc32)nc2ccccc21` [Example 42] yielded a % cell protection from RSV at 4 µg/mL in data set [1] of 100%. The CC50 at 4 days in data set [2] was found to be 168 µM.

Consider `C[S+]([O-])CCn1c(Cn2nnc3ccccc32)nc2ccccc21` (stereo not drawn) [Example 25, 1-[1-(2-Methylsulfinyl-ethyl)-1H-benzimidazol-2-ylmethyl]-1H-benzotriazole], for which, in data set [1], the % cell protection from RSV at 4 µg/mL was found to be 100%. Also, the CC50 at 4 days in data set [2] came to 56 µM.

With `[N-]=[N+]=NCCn1c(Cn2nnc3ccccc32)nc2ccccc21` [Example 33, 1-[1-(2-Azido-ethyl)-1-H-benzimidazol-2-ylmethyl)-1H-benzotriazole], in data set [1], the % cell protection from RSV at 4 µg/mL stood at 82%. Further, in data set [2], the CC50 at 4 days turned out to be 75 µM. `CCCCn1c(Cn2nnc3ccccc32)nc2ccccc21` [Example 19, 1-(1-Butyl-1H-benzimidazol-2-ylmethyl)-1H-benzotriazole] gave a % cell protection from RSV at 4 µg/mL in data set [1] of 95%. Moreover, the CC50 at 4 days in data set [2] was found to be 12 µM. The like results for `CC(CCn1c(Cn2nnc3ccccc32)nc2ccccc21)=NO` [Example 39] were, in that order, 100% and over 33 µM.

Consider `CC(CCn1c(Cn2nnc3ccccc32)nc2ccccc21)CC(C)(C)C` (stereo not drawn) [Example 23, 1-[1-(3,5,5-Trimethyl-hexyl)-1H-benzimidazol-2-ylmethyl]-1H-benzotriazole], for which, in data set [1], the % cell protection from RSV at 4 µg/mL was 98%. Also, the CC50 at 4 days in data set [2] is 59 µM. The like results for `OCCn1c(Cn2nnc3ccccc32)nc2ccccc21` [Example 31, 2-(2-Benzoatrizol-1-ylmethyl-benzimidazol-1-yl)-ethanol] were, in that order, 48% and 21 µM. As to `CC(C)(C)C(O)Cn1c(Cn2nnc3ccccc32)nc2ccccc21` (stereo not drawn) [Example 27, 1-(2-Benzotriazol-1-ylmethyl-1-H-benzimidazol-1-yl)-3,3-dimethylbutan-2-ol], the % cell protection from RSV at 4 µg/mL in data set [1] worked out at 44%. The compound also yielded a CC50 at 4 days in data set [2] of 117 µM. On the same counts, the results for `CC(O)CCn1c(Cn2nnc3ccccc32)nc2ccccc21` (stereo not drawn) [Example 38] are 100% and over 309 µM. `c1ccc(Cn2c(Cn3nnc4ccccc43)nc3ccccc32)cc1` [Example 46, 1-[(1-Phenylmethyl-1H-benzimidazol)-2-ylmethyl]-1H-benzotriazole] came in with a % cell protection from RSV at 4 µg/mL in data set [1] of 53%. Also, in data set [2], the CC50 at 4 days amounted to 97 µM. The like results for `O=C(O)CCn1c(Cn2nnc3ccccc32)nc2ccccc21` [Example 43] were, in that order, 82% and over 309 µM. In data set [1], `CC(C)CCn1c(Cn2nnc3ccccc32)nc2ccccc21` [Example 20, 1-[1-(3-Methylbutyl)-1H-benzimidazol-2-ylmethyl)-1H-benzotriazole] registered a % cell protection from RSV at 4 µg/mL of 87%. Further, the CC50 at 4 days in data set [2] came to 40 µM.

`CS(=O)(=O)CCn1c(Cn2nnc3ccccc32)nc2ccccc21` [Example 26, 1-[1-(2-Methylsulfonyl-ethyl)-1H-benzimidazol-2-ylmethyl]-1H-benzotriazole] displayed a % cell protection from RSV at 4 µg/mL in data set [1] of 100%. For the same compound, in data set [2], the CC50 at 4 days was determined as 200 µM. On the same counts, the results for `O=C(Cn1c(Cn2nnc3ccccc32)nc2ccccc21)c1ccccc1` [Example 49, 2-[(2-Benzotriazol-1-ylmethyl)-benzimidazol-1-yl]-1-phenyl-ethanone] are 76% and 18 µM. In turn, `NC(=O)c1ncn([C@@H]2O[C@H](CO)[C@@H](O)[C@H]2O)n1` [Ribavirin, reference compound] showed a cell protection in data set [1] (control compound at 2.5 μg/mL (corresponding to 10.2 μM)) of 100%. `c1cncc(Cn2c(Cn3nnc4ccccc43)nc3ccccc32)c1` [Example 47, 1-[1-(Pyridin-3-yl-methyl)-1H-benzimidazol-2-ylmethyl]-1H-benzotriazole] registered a % cell protection from RSV at 4 µg/mL in data set [1] of 40%. The compound also came in with a CC50 at 4 days in data set [2] of 250 µM. As for `O=CCCn1c(Cn2nnc3ccccc32)nc2ccccc21` [Example 30, 1-[(2-Benzotriazol-1-ylmethyl)-1-H-benzimidazol-1-yl]-propionaldehyde], the % cell protection from RSV at 4 µg/mL in data set [1] turned out to be 90%. The compound further had a CC50 at 4 days in data set [2] of 108 µM. `CC(C)CCCn1c(Cn2nnc3ccccc32)nc2ccccc21` [Example 22, 1-[1-(4-Methylpentyl)-1H-benzimidazol-2-ylmethyl]-1H-benzotriazole] yielded a % cell protection from RSV at 4 µg/mL in data set [1] of 75%. This compound came in with a CC50 at 4 days in data set [2] of 15 µM. On the same counts, the results for `c1ccc2c(c1)nnn2Cc1nc2ccccc2n1CC1OCCO1` [Example 28] are 61% and 29 µM. With `CNC(=O)Cn1c(Cn2nnc3ccccc32)nc2ccccc21` [Example 35, 2-(2-Benzotriazol-1-ylmethyl-benzimidazol-1-yl)-N-methyl acetamide], the % cell protection from RSV at 4 µg/mL in data set [1] was determined as 58%. This compound registered a CC50 at 4 days in data set [2] of 230 µM.

Turning to `CSCCn1c(Cn2nnc3ccccc32)nc2ccccc21` [Example 24, 1-[1-(2-Methylthio-ethyl)-1H-benzimidazol-2-ylmethyl]-1H-benzotriazole], the % cell protection from RSV at 4 µg/mL in data set [1] worked out at 100%. The CC50 at 4 days in data set [2] was found to be 165 µM. The like results for `c1ccc2c(c1)nnn2Cc1nc2ccccc2n1CCC1OCCO1` [Example 29] were, in that order, 98% and 185 µM. In data set [1], `N=C(N)CCn1c(Cn2nnc3ccccc32)nc2ccccc21` [Example 45, 3-(2-Benzotriazol-1-ylmethyl-benzimidazol-1-yl)-1-imino-1propyl-amine Diacetate] displayed a % cell protection from RSV at 4 µg/mL of 74%. In data set [2], the CC50 at 4 days was determined as 6.3 µM. On the same counts, the results for `CC(C)CCn1c(Cn2nc3ccccc3n2)nc2ccccc21` [Example 61, 2-[1-(3-methylbutyl)-1H-benzimidazol-2-ylmethyl]-2H-benzotriazole Dihydrochloride] are 78% and 27 µM. As to `CC(=O)CCn1c(Cn2nnc3ccccc32)nc2ccccc21` [Example 37], the “% Cell protection at 4 μg/mL” value in data set [1] is on record as 100%. The CC50 in data set [3] amounted to 59 µM. Take `N/C(CCn1c(Cn2nnc3ccccc32)nc2ccccc21)=N\O` [Example 44, N-[3-(2-Benzotriazol-1-ylmethyl-benzimidazol-1-yl)-1-imino-propyl)-hydroxyamine]: the % cell protection from RSV at 4 µg/mL in data set [1] was determined as 91%. The CC50 at 4 days in data set [2] stood at 16 µM. For `OC(Cn1c(Cn2nnc3ccccc32)nc2ccccc21)c1ccccc1` (stereo not drawn) [Example 50, 2-[(2-Benzotriazol-1-ylmethyl)-benzimidazol-1-yl]-1-phenyl-ethanol], the % cell protection from RSV at 4 µg/mL in data set [1] was determined as 94%. For the same compound, in data set [2], the CC50 at 4 days was determined as 36 µM. On the same counts, the results for `c1ccc(CCn2c(Cn3nnc4ccccc43)nc3ccccc32)cc1` [Example 48, 1-[1-(2-Phenethyl)-1-H-benzimidazol-2-ylmethyl)-1H-benzotriazole] are 95% and 2.6 µM.

In the case of `CS(=O)(=O)OCCn1c(Cn2nnc3ccccc32)nc2ccccc21` [Example 32, Methanesulfonic Acid, 2-(2-benzotriazol-1-ylmethyl-benzimidazol-1-yl)-ethyl ester], the % cell protection from RSV at 4 µg/mL in data set [1] worked out at 60%. Besides, the CC50 at 4 days in data set [2] was found to be 71 µM.
